Results published in ChEMBL document CHEMBL1201862, “PubChem BioAssay data set” (2004).
The source made the active and inactive calls.

Assays:
Vero [1] = test: cells; format: functional, cell-based; settings: Chlorocebus sabaeus
Vero [2] = test: cells; format: functional; settings: Chlorocebus sabaeus
[3] = target: T1, High affinity choline transporter 1 (Homo sapiens, UniProt Q9GZV3); test: CHT inhibitors, dose response, cell-based, 5-point CRC, membrane potential dye (AID 504840); format: functional
T1 sequence (Q9GZV3 whole entry): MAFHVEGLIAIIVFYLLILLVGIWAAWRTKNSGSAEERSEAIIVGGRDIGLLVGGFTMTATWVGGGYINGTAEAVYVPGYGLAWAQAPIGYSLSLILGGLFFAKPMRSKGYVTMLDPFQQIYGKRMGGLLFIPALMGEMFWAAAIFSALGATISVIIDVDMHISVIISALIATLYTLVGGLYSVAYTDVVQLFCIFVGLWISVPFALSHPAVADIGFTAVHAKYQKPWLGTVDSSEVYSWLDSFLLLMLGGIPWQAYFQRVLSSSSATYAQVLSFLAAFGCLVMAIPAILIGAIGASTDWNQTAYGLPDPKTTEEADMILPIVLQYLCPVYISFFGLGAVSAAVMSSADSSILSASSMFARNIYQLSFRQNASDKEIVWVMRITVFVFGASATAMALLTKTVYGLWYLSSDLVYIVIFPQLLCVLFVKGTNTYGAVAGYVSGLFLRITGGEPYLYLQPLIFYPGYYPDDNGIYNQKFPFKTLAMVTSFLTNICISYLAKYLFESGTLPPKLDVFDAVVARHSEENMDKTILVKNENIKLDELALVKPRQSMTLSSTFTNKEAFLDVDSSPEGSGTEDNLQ

[4] = Luminescence Cell-Based Dose Confirmation HTS to Identify Activators of 5'UTR Stem-Loop Driven Alpha-Synuclein mRNA Translation in H4 Neuroglioblastoma Cells. [Related pubchem assays: 1829 (Project Summary), 1814 (Primary HTS)]; format: functional
[5] = Luminescence Cell-Based Dose Response HTS to Identify Activators of Luciferase Translation or Activity in H4 […] Cells. [Related pubchem assays: 1829 (Project Summary), 1814 (Primary HTS)]; format: functional
H4 = test: Luminescence Cell-Based Dose Response HTS to Identify Activators of 5'UTR Stem-Loop Driven Prion Protein mRNA Translation in H4 Neuroglioblastoma Cells. [Related pubchem assays: 1829 (Project Summary), 1814 (Primary HTS)]; format: functional; settings: Homo sapiens
[6] = target: T2, Heat shock factor protein 1 (Mus musculus, UniProt P38532); test: inhibition of MG132-induced HSE-luciferase signal, confirmation, cell-based, NIH3T3, luminescence, dose retest (AID 2382); format: functional;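 also: NIH3T3 fibroblasts with HSF1-driven luciferase reporter stressed by proteasome inhibitor MG132; luminescence from HSF1-driven luciferase expression after 8 hours of MG132 stress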
T2 sequence (P38532 whole entry): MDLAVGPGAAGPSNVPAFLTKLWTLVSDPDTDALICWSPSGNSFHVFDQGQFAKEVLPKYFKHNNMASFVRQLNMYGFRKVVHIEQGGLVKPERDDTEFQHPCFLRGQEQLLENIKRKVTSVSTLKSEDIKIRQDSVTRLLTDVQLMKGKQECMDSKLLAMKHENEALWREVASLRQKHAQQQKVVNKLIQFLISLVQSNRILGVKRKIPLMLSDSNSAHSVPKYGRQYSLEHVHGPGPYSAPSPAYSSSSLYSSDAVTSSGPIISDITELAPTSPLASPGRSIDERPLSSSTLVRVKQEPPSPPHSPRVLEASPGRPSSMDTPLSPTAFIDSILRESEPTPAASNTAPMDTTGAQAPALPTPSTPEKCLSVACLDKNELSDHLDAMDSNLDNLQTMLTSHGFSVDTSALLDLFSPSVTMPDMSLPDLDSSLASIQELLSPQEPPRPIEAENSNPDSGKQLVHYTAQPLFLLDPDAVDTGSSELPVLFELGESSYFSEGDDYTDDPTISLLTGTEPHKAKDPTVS

[7] = microbe, parasite or virus in culture; format: functional; settings: Mycobacterium tuberculosis
Jurkat = test: antigen receptor-induced NF-kB inhibitors, dose response, Jurkat, luciferase reporter, luminescence, B- and T-cell (AID 489004); format: functional, cell-based; settings: Homo sapiens;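 also: NF-kB luciferase reporter Jurkat cells stimulated with PMA plus ionomycin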
[8] = cytotoxicity in HEK-293T NF-kB-Luc cells, dose response, cytotoxicity control for B/T-cell NF-kB inhibitor project, cell-based, uHTS hits (AID 489019); format: functional;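 also: IC50 reflects cytotoxicity as loss of cell viability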
[9] = target: T3, Replicative DNA helicase DnaB (Mycobacterium tuberculosis, UniProt P9WMR3); test: DnaB intein splicing inhibitors, dose response, biochemical, cell-free fluorescence (AID 449749); format: functional
T3 sequence (P9WMR3 whole entry): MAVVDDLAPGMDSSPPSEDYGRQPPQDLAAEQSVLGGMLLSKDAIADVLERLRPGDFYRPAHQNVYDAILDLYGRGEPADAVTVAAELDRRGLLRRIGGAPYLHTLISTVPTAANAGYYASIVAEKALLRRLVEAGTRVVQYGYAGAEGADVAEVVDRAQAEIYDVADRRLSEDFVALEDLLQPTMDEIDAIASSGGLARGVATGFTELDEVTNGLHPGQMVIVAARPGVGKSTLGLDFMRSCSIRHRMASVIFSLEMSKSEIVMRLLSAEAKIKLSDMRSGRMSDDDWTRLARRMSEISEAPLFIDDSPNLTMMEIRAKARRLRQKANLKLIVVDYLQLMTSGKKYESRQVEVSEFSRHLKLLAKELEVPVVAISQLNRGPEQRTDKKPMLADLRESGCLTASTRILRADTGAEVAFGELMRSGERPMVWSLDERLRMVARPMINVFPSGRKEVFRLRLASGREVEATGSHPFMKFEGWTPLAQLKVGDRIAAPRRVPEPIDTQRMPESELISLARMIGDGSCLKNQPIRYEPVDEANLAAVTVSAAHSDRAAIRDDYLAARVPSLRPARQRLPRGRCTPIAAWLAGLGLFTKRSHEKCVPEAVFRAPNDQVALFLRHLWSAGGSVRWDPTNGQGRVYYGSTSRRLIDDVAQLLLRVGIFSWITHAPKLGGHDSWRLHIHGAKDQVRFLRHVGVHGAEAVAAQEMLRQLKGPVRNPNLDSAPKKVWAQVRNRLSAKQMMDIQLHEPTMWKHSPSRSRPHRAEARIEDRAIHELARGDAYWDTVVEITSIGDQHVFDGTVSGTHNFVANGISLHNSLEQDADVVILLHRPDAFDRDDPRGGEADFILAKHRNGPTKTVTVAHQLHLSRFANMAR

Protein RecA = target: T4, Protein RecA (Mycobacterium tuberculosis, UniProt P9WHJ3); test: Fluorescence Cell-Free Homogeneous Dose Retest to Identify Inhibitors of RecA-Intein Splicing Activity. [Related pubchem assays (depositor defined):AID2097, AID2223, AID489010, AID492950]; format: functional
T4 sequence (P9WHJ3 whole entry): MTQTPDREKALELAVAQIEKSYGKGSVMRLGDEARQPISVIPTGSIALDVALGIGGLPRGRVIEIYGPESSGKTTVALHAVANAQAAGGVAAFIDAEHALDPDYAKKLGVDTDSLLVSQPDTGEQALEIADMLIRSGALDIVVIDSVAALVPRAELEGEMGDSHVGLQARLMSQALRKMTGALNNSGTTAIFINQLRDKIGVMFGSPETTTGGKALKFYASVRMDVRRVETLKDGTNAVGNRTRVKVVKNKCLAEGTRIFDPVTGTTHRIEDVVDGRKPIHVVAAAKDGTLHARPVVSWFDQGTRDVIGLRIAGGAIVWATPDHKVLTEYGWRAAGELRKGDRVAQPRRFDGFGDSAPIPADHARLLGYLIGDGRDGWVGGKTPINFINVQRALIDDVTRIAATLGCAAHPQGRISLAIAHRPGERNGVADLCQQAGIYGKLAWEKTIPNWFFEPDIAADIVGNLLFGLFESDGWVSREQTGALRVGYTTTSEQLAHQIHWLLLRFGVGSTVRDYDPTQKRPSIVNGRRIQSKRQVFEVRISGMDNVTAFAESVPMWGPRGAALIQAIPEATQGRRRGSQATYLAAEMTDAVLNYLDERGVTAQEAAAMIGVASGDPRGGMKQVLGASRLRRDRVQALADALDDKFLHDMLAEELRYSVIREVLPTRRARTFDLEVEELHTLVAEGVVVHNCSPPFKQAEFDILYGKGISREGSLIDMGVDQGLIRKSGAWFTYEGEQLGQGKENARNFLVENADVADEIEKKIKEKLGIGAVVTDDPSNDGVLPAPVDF

HEK293 [10] = test: inhibitors of LMP1-driven NF-kB reporter, dose response, cell-based, HEK293, luciferase, cherry-pick (AID 588343); format: functional; settings: Homo sapiens
[11] = Shn3 3'UTR reporter inhibitors, dose response, cell-based, Clone20 osteoblasts, firefly luciferase, cherry-picked (AID 624132); format: functional;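 also: firefly luciferase luminescence from reporter carrying the Shn3 3'UTR in osteoblasts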
[12] = HepG2 cell cytotoxicity, dose response, cytotoxicity control for Shn3 inhibitor project, CellTiter-Glo, cherry-picked (AID 624134); format: functional, cell-based
[13] = control 3'UTR Renilla luciferase suppression, dose response, counter-screen for Shn3 inhibitor project, cell-based, Clone20-Shn3RL, cherry-picked (AID 624133); format: functional
Beta-galactosidase = Beta-galactosidase (Escherichia coli, UniProt Q8VNN2); test: PubChem AID 485352; format: functional
[14] = target: T5, Type-1 angiotensin II receptor (Homo sapiens, UniProt P30556); test: AT1 receptor antagonists, dose response, selectivity assay for APJ receptor antagonist project, cell-based, uHTS hits (AID 463214); format: functional;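 also: antagonist potency against angiotensin II stimulated AT1 response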
T5 sequence (P30556 whole entry): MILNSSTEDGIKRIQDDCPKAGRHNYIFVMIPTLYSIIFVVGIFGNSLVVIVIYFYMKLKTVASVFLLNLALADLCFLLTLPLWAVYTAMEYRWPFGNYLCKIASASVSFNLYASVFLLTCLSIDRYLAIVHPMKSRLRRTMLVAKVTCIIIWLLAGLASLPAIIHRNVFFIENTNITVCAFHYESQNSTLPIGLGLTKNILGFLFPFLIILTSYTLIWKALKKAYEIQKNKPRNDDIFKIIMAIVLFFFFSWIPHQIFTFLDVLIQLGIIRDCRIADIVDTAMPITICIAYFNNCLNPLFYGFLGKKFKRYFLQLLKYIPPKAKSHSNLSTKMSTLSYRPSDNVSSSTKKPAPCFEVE

HEK293 [15] = test: cells; format: functional, cell-based; settings: Homo sapiens
[16] = target: T6, Nuclear receptor subfamily 0 group B member 1 (Homo sapiens, UniProt P51843); test: Luminescence-based cell-based high throughput dose response assay for inhibitors of the orphan nuclear receptor subfamily 0, group B, member 1 (DAX1; NR0B1). [Related pubchem assays (depositor defined):AID504766, AID504790]; format: functional
T6 sequence (P51843 whole entry): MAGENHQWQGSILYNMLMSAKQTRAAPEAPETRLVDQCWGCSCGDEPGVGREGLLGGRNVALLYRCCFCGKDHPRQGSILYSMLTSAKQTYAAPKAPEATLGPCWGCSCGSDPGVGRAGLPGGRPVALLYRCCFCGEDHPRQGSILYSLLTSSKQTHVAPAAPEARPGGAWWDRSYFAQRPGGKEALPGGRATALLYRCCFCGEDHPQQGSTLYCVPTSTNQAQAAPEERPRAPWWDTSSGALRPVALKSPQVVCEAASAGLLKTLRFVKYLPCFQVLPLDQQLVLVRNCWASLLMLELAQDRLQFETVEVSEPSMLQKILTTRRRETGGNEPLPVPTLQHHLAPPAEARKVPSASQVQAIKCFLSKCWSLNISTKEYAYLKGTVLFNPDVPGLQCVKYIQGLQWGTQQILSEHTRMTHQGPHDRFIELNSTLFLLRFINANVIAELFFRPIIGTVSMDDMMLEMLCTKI

Beta-galactosidase, sequence (Q8VNN2 whole entry): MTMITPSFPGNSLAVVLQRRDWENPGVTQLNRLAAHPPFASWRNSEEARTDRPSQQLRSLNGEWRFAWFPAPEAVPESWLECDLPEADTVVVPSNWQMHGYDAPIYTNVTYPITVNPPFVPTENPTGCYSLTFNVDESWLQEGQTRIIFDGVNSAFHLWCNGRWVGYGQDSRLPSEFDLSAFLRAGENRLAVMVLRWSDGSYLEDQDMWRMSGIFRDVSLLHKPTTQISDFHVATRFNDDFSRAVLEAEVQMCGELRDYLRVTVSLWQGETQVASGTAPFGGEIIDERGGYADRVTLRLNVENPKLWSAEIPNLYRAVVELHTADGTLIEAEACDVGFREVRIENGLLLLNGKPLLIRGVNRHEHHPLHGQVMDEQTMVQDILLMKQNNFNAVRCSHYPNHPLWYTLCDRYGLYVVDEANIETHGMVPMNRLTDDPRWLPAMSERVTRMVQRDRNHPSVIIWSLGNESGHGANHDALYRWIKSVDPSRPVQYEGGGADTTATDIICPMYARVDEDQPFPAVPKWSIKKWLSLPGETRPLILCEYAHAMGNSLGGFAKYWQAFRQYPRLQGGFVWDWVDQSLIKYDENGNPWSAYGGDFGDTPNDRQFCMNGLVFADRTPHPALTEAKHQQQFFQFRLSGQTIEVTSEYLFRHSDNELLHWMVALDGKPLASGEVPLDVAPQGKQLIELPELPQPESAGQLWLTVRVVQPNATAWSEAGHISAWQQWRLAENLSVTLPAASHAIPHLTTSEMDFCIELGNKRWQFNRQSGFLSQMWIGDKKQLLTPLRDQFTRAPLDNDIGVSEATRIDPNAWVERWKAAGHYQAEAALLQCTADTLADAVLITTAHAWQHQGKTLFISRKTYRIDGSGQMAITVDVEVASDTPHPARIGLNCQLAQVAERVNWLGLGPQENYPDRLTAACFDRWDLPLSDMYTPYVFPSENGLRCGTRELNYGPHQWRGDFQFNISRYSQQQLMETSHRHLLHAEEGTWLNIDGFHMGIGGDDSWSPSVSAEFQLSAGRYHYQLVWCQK

## c1ccc2c(c1)ccc1[nH]c3c(c12)CCCC3
Vero [1]
  IC50: 3.39 µM (active)
Vero [2]
  CC50: > 25 µM (active)

## CCCCCn1c(=O)[nH]c2cc(C(=O)NCCCN3CCCCC3C)ccc2c1=O (stereo unspecified)
[3]
  IC50: 14.5 µM (active)

## O=C(CCl)N1CCCC1c1ccc2c(c1)OCCO2 (stereo unspecified)
[4]
  EC50: 29.6 µM (active)
[5]
  EC50: 14 µM (active)
H4
  EC50: > 120 µM (not active)
[6]
  EC50: 1.14 µM (active)
[7]
  CC50: 11.6 µM (active)
Jurkat
  IC50: 1.39 µM (active)
[8]
  IC50: > 80 µM (inactive)
[9]
  AC50: 12.2 µM (active)
Protein RecA
  EC50: > 380 µM (inconclusive)

## COc1ccc(C(=O)NC2CCCc3c2cnn3-c2cccc(C)c2C)c(OC)n1 (stereo unspecified)
HEK293 [10]
  AC50: 17.5 µM (active)
Vero [1]
  IC50: 3.8 µM (active)
Vero [2]
  CC50: > 25 µM (active)
[11]
  AC50: 1.96 µM (active)
[12]
  AC50: > 70 µM (inactive)
[13]
  AC50: 3.27 µM (active)

## O=C(C=Cc1ccccc1)c1cnc2ccccc2c1O
Vero [1]
  IC50: > 25 µM (active)
Vero [2]
  CC50: 11 µM (active)

## CCc1ccc(-c2nc(C[S+]([O-])CC(=O)NCc3ccco3)c(C)o2)cc1 (stereo unspecified)
Jurkat
  IC50: 44.1 µM (inactive)
[8]
  IC50: > 80 µM (inactive)

## O=C1Nc2ccccc2C1=Nc1ccc(F)cc1
Beta-galactosidase
  EC50: > 40 µM (inactive)
[14]
  IC50: 24.4 µM (not active)

## CS(=O)(=O)N1CCc2cc(C(=O)Nc3ccccc3Cl)ccc21
HEK293 [15]
  IC50: > 67.5 µM (inactive)
[16]
  IC50: > 67.5 µM (inactive)

## Cc1ccnc(SCc2cc(=O)c(OC(=O)c3ccco3)co2)n1
[3]
  IC50: 15.8 µM (active)

## CN1CCN(C(=S)c2ccc(-c3cccc([N+](=O)[O-])c3)o2)CC1
[4]
  EC50: 0.141 µM (active)
[5]
  EC50: 0.117 µM (active)
H4
  EC50: 2.4 µM (active)
HEK293 [15]
  IC50: > 67.6 µM (inactive)
[16]
  IC50: > 67.6 µM (inactive)

## O=C(Cc1ccc(F)cc1)OCC(=O)c1cc2ccccc2o1
Beta-galactosidase
  EC50: > 40 µM (inactive)
[14]
  IC50: 23.9 µM (not active)

## Nc1c(-c2ccc(Cl)cc2)cnc2c(-c3ccccc3)cnn12
HEK293 [15]
  IC50: > 67.5 µM (inactive)
[16]
  IC50: > 67.5 µM (inactive)
